Where a name gives a salt, the structure may show the parent alone.
Experiment: Aerated and tapped bulk density of SB-207266-A
Assay type: physicochemical
Details: SB-207266-A batches from Description 1

| Aerated bulk density [g/mL] | Tapped bulk Density [g/mL] | SMILES |
| --- | --- | --- |
| 0.173 | 0.339 | CCCCN1CCC(CNC(=O)c2c3n(c4ccccc24)CCCO3)CC1.Cl [BDC-G-03C] |
| 0.146 | 0.310 | CCCCN1CCC(CNC(=O)c2c3n(c4ccccc24)CCCO3)CC1.Cl [BDC-G-04C] |
| 0.136 | 0.250 | CCCCN1CCC(CNC(=O)c2c3n(c4ccccc24)CCCO3)CC1.Cl [BDC-H-01C] |
| 0.152 | 0.308 | CCCCN1CCC(CNC(=O)c2c3n(c4ccccc24)CCCO3)CC1.Cl [BDC-G-05C] |
| 0.142 | 0.300 | CCCCN1CCC(CNC(=O)c2c3n(c4ccccc24)CCCO3)CC1.Cl [BDC-G-02C] |

Same assay, conditions: typical value, product of Description 2

| Aerated bulk density | Tapped bulk Density | SMILES |
| --- | --- | --- |
| ca. 0.14 g/ml | ca. 0.31 g/ml | CCCCN1CCC(CNC(=O)c2c3n(c4ccccc24)CCCO3)CC1 [SB-207266-A, N-[(1-^nbutyl-4-piperidinyl)methyl]-3,4-dihydro-2H-[1,3]-oxazino[3,2-a]indole-10-carboxamide hydrochloride] |

— patent US20050075335A1, “Pharmaceutical composition comprising n((1-n-butyl-4-piperidinyl)methyl)-3,4-dihydro-2h-(1,3)oxazino(3,2-a)indole-10-carboxamide or salt and process therefor comprising dry granulation” (priority 2002, published 2005)
